Calls of active or inactive are those of the source. No cut-off for these calls is given here.
Tests used:
[1] = molecular target: Dual specificity tyrosine-phosphorylation-regulated kinase 4 (Homo sapiens) (UniProt Q9NR20); experiment: Inhibition of recombinant human GST-tagged full length DYRK4 expressed in baculovirus expression system using Ser/Thr 9 as substrate at 10 uM incubated for 60 mins by Z'-Lyte assay relative to control
[2] = molecular target: Mitogen-activated protein kinase 12 (Homo sapiens) (UniProt P53778); experiment: Inhibition of recombinant human His-tagged full length p38 gamma expressed in baculovirus expression system using Ser/Thr 03 as substrate at 10 uM incubated for 60 mins by Z'-Lyte assay relative to control
[3] = molecular target: Mitogen-activated protein kinase 13 (Homo sapiens) (UniProt O15264); experiment: Inhibition of recombinant human His-tagged full length p38 delta expressed in baculovirus expression system using Ser/Thr 03 as substrate at 10 uM incubated for 60 mins by Z'-Lyte assay relative to control
[4] = molecular target: Receptor-interacting serine/threonine-protein kinase 2 (Homo sapiens) (UniProt O43353); experiment: Inhibition of tracer 178 binding to recombinant human His-tagged RIPK2 (1 to 299 residues) expressed in insect expression system at 10 uM incubated for 60 mins by Lanthascreen assay relative to control
[5] = molecular target: Dual specificity protein kinase TTK (Homo sapiens) (UniProt P33981); experiment: Inhibition of tracer 236 binding to recombinant human GST-tagged full length TTK expressed in baculovirus expression system at 10 uM incubated for 60 mins by Lanthascreen assay relative to control
[6] = molecular target: Ribosomal protein S6 kinase alpha-1 (Homo sapiens) (UniProt Q15418); experiment: Inhibition of recombinant human His-tagged full length RSK1 expressed in baculovirus expression system using Ser/Thr 06 as substrate at 10 uM incubated for 60 mins by Z'-Lyte assay relative to control
[7] = molecular target: Serine/threonine-protein kinase BRSK1 (Homo sapiens) (UniProt Q8TDC3); experiment: Inhibition of recombinant human GST-tagged full length BrSK1 expressed in baculovirus expression system using Ser/Thr 21 as substrate at 10 uM incubated for 60 mins by Z'-Lyte assay relative to control
[8] = molecular target: Myosin light chain kinase (Homo sapiens) (UniProt Q32MK0); experiment: Inhibition of MYLK3 (unknown origin) by selectscreen kinase assay; settings: dose 10.0 µM, time 60.0 min
[9] = molecular target: Aurora kinase A (Homo sapiens) (UniProt O14965); experiment: Inhibition of recombinant human His-tagged full length Aurora A expressed in baculovirus expression system using Ser/Thr 01 as substrate at 10 uM incubated for 60 mins by Z'-Lyte assay relative to control
[10] = molecular target: Protein kinase C epsilon type (Homo sapiens) (UniProt Q02156); experiment: Inhibition of recombinant human GST-tagged full length PKCepsilon expressed in insect expression system using Ser/Thr 07 as substrate at 10 uM incubated for 60 mins by Z'-lyte assay relative to control
[11] = molecular target: Serine/threonine-protein kinase Sgk2 (Homo sapiens) (UniProt Q9HBY8); experiment: Inhibition of recombinant human GST-tagged full length SGK2 (54 to 427 residues) expressed in baculovirus expression system using Ser/Thr 06 as substrate at 10 uM incubated for 60 mins by Z'-Lyte assay relative to control
[12] = molecular target: Serine/threonine-protein kinase TAO2 (Homo sapiens) (UniProt Q9UL54); experiment: Inhibition of recombinant human GST-tagged TAO2 (1 to 314 residues) expressed in baculovirus expression system using Ser/Thr 07 as substrate at 10 uM incubated for 60 mins by Z'-Lyte assay relative to control
[13] = molecular target: STE20-like serine/threonine-protein kinase (Homo sapiens) (UniProt Q9H2G2); experiment: Inhibition of tracer 236 binding to recombinant human GST-tagged full length SLK expressed in baculovirus expression system at 10 uM incubated for 60 mins by Lanthascreen assay relative to control
[14] = molecular target: Epithelial discoidin domain-containing receptor 1 (Homo sapiens) (UniProt Q08345); experiment: Inhibition of tracer 178 binding to recombinant human GST-tagged DDR1 (440 to 876 residues ) expressed in baculovirus expression system at 10 uM incubated for 60 mins by Lanthascreen assay relative to control
[15] = molecular target: Maternal embryonic leucine zipper kinase (Homo sapiens) (UniProt Q14680); experiment: Inhibition of recombinant human GST-tagged MELK (1 to 340 residues) expressed in baculovirus expression system using Ser/Thr 17 as substrate at 10 uM incubated for 60 mins by Z'-lyte assay relative to control
[16] = molecular target: Mitogen-activated protein kinase kinase kinase kinase 4 (Homo sapiens) (UniProt O95819); experiment: Inhibition of recombinant human GST-tagged full length MAP4K4 expressed in baculovirus expression system using Ser/Thr 07 as substrate at 10 uM incubated for 60 mins by Z'-lyte assay relative to control
[17] = molecular target: Insulin receptor-related protein (Homo sapiens) (UniProt P14616); experiment: Inhibition of recombinant human GST-tagged IRR (944 to 1297 residues) expressed in baculovirus expression system using Tyr 04 as substrate at 10 uM incubated for 60 mins by Z'-lyte assay relative to control
[18] = molecular target: Platelet-derived growth factor receptor alpha (Homo sapiens) (UniProt P16234); experiment: Inhibition of recombinant human GST-tagged PDGFRalpha (550 to 1089 residues) expressed in baculovirus expression system using Tyr 04 as substrate at 10 uM incubated for 60 mins by Z'-lyte assay relative to control
[19] = molecular target: Protein kinase C theta type (Homo sapiens) (UniProt Q04759); experiment: Inhibition of recombinant human His-tagged full length PKCtheta expressed in baculovirus expression system using Ser/Thr 07 as substrate at 10 uM incubated for 60 mins by Z'-lyte assay relative to control
[20] = molecular target: Dual specificity protein kinase CLK3 (Homo sapiens) (UniProt P49761); experiment: Inhibition of recombinant human GST-tagged full length CLK3 expressed in baculovirus expression system using Ser/Thr 18 as substrate at 10 uM incubated for 60 mins by Z'-Lyte assay relative to control
[21] = molecular target: Death-associated protein kinase 3 (Homo sapiens) (UniProt O43293); experiment: Inhibition of recombinant human GST-tagged full length ZIPK expressed in baculovirus expression system using Ser/Thr 13 as substrate at 10 uM incubated for 60 mins by Z'-Lyte assay relative to control
[22] = molecular target: Casein kinase II subunit alpha (Homo sapiens) (UniProt P68400); experiment: Inhibition of recombinant human His-tagged full length CK2alpha1 expressed in baculovirus expression system using Ser/Thr 1 as substrate at 10 uM incubated for 60 mins by Z'-Lyte assay relative to control
[23] = molecular target: Mitogen-activated protein kinase 8 (Homo sapiens) (UniProt P45983); experiment: Inhibition of recombinant human His-tagged full length JNK1alpha1 expressed in baculovirus expression system using Ser/Thr 04 as substrate at 10 uM incubated for 60 mins by Z'-lyte assay relative to control
[24] = molecular target: Receptor-interacting serine/threonine-protein kinase 1 (Mus musculus) (UniProt Q60855); experiment: Inhibition of mouse RIPK1 incubated for 2 hrs by fluorescence polarization assay

Chain of Serine/threonine-protein kinase Sgk2 (Homo sapiens) (Q9HBY8 whole entry, the tested form may be a part): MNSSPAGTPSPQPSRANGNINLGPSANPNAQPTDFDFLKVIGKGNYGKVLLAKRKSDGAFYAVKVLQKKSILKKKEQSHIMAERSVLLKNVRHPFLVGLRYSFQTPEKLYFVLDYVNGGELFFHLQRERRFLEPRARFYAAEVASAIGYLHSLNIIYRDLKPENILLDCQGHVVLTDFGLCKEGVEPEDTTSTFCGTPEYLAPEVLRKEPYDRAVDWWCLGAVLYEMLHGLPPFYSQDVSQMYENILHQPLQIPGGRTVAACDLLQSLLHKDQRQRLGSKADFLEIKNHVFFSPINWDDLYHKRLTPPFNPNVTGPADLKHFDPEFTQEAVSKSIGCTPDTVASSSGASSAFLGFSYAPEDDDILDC
Chain of Mitogen-activated protein kinase 12 (Homo sapiens) (P53778 whole entry): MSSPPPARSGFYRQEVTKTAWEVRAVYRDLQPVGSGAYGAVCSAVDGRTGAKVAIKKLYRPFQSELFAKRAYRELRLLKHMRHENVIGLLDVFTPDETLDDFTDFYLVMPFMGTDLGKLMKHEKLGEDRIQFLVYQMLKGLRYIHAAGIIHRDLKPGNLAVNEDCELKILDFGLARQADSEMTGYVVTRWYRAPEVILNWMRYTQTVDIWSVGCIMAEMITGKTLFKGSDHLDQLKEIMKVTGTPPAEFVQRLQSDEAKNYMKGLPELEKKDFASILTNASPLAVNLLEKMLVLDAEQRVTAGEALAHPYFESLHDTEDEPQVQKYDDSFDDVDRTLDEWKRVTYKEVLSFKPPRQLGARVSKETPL
Chain of Insulin receptor-related protein (Homo sapiens) (P14616 27-742 limits assumed): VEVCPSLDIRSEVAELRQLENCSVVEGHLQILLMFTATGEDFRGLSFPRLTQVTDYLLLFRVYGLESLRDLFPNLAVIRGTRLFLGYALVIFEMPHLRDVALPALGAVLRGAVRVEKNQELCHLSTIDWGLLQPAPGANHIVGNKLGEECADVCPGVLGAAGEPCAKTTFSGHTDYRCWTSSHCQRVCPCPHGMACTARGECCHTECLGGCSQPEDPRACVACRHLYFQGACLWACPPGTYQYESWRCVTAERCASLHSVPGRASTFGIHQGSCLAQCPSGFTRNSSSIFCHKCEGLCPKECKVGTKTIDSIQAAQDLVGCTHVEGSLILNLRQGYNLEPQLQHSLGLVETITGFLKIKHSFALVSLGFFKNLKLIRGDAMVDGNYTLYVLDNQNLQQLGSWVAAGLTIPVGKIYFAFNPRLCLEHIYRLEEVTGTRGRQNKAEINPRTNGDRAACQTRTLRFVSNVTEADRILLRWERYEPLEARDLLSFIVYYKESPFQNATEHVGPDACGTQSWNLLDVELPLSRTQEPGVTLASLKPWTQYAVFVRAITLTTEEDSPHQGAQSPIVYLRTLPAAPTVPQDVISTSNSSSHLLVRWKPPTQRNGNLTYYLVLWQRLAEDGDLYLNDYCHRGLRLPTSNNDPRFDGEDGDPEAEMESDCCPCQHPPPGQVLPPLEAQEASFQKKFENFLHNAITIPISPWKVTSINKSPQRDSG
Chain of Insulin receptor-related protein (Homo sapiens) (P14616 747-1297 limits assumed): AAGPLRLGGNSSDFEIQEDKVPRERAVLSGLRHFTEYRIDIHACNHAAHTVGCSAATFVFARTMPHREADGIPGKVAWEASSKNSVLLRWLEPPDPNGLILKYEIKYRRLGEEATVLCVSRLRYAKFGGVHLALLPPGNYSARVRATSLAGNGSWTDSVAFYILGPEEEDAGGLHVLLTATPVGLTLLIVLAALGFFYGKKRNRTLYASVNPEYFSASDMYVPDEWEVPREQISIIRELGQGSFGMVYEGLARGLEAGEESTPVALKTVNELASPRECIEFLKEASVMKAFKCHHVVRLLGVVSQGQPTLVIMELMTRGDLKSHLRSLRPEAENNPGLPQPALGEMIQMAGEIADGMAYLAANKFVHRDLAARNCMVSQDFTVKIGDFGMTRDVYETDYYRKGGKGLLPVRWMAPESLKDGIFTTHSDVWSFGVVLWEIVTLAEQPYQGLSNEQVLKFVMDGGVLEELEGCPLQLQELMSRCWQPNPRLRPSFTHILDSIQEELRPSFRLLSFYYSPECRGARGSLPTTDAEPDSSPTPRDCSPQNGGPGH
Chain of Aurora kinase A (Homo sapiens) (O14965 whole entry): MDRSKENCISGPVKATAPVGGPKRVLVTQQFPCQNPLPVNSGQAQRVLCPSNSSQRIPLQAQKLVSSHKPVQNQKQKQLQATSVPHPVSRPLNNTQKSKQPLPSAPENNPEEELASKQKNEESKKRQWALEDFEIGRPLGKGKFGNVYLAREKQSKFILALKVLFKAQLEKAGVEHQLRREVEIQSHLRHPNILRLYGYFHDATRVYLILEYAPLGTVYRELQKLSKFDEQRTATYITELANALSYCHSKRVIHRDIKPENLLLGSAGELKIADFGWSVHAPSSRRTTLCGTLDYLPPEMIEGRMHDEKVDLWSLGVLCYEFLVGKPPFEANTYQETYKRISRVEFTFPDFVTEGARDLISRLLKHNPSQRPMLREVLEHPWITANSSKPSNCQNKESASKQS
Chain of Mitogen-activated protein kinase 8 (Homo sapiens) (P45983 whole entry): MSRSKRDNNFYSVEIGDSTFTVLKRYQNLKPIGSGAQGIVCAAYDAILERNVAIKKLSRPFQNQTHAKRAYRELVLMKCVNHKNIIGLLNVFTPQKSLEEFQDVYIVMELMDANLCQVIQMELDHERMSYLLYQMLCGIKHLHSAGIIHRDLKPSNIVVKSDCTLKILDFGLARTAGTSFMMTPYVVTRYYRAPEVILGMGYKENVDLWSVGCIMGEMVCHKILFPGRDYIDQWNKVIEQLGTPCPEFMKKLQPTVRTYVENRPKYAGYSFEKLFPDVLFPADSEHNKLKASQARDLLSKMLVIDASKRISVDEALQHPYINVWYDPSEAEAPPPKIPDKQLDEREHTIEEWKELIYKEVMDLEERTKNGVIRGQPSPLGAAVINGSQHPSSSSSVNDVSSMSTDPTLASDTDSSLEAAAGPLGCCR
Chain of STE20-like serine/threonine-protein kinase (Homo sapiens) (Q9H2G2 whole entry, looked up, the tested form may be a part): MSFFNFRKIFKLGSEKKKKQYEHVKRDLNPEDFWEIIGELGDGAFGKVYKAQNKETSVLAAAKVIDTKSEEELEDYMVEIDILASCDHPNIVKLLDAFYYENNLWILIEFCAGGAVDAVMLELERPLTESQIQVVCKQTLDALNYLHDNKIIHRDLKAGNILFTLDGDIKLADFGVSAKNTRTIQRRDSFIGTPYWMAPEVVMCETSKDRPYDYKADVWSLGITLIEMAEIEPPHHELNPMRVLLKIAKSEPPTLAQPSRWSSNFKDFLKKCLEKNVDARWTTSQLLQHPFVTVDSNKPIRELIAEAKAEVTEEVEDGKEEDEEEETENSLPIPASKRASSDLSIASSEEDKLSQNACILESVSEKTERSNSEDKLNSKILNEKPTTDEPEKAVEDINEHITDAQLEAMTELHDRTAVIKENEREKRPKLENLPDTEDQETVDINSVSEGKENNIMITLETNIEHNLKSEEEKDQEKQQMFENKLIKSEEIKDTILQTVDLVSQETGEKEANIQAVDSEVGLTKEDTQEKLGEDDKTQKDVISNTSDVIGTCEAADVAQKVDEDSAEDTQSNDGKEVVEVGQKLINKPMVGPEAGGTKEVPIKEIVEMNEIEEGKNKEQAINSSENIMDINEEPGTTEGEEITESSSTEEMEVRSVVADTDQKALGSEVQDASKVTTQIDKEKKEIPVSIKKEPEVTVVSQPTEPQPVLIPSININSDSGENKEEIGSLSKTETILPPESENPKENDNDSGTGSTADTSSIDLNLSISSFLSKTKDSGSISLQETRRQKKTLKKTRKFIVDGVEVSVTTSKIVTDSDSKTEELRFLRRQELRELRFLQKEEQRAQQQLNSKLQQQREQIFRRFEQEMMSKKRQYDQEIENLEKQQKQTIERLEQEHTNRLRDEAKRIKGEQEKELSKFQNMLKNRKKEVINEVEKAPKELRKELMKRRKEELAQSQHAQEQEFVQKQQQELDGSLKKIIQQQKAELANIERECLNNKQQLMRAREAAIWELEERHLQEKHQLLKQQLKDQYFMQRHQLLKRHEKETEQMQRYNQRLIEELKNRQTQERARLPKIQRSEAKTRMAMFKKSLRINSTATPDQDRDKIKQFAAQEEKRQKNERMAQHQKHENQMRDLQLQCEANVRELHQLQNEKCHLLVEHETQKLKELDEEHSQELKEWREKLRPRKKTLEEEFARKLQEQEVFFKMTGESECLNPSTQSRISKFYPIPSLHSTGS
Chain of Receptor-interacting serine/threonine-protein kinase 2 (Homo sapiens) (O43353 whole entry, the tested form may be a part): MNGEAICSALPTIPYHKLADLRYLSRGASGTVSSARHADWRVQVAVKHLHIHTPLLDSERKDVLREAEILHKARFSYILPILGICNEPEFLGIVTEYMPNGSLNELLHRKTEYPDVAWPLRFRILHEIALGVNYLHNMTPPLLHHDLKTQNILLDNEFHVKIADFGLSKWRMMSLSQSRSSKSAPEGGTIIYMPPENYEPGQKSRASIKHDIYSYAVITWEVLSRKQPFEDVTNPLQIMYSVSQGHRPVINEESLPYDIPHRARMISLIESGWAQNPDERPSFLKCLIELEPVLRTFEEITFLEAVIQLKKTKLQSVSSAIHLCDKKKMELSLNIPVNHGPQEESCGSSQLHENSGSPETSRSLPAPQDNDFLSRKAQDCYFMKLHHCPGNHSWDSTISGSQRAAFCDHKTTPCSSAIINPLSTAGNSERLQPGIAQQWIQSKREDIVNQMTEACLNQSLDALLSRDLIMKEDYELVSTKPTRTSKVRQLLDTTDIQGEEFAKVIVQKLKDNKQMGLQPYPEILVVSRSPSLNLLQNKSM
Chain of Casein kinase II subunit alpha (Homo sapiens) (P68400 whole entry, looked up): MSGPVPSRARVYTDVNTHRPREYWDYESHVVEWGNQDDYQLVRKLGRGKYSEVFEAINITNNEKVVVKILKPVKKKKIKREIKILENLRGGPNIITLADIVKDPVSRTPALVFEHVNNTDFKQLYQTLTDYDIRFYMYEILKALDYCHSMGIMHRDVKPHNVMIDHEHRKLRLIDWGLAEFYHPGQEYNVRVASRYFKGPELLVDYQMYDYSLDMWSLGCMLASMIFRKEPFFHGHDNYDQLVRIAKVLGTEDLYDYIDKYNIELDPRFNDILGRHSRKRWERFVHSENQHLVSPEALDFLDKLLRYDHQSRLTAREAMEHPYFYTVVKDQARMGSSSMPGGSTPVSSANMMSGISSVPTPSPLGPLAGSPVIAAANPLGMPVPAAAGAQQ

`CN1C(=O)[C@@H](NC(=O)c2n[nH]c3ncc(C(F)(F)C(F)(F)F)cc23)COc2ccccc21` gave an inhibition [1] of 4.5%, an inhibition [2] of -1% and an inhibition [3] of 5.5%. It also gave an inhibition [4] of -1%, an inhibition [5] of -6.5% and an inhibition [6] of 8%. It also gave an inhibition [7] of 6%, an inhibition [8] of 10.5% and an inhibition [9] of 0%. It also gave an inhibition [10] of -6%, an inhibition [11] of 4% and an inhibition [12] of 5%. For the same molecule, the inhibition [13] was 5%, the inhibition [14] was 7% and the inhibition [15] was -6%. The inhibition [16] was 15.5%, the inhibition [17] was 6.5% and the inhibition [18] was 2.5%. For the same molecule, the inhibition [19] was 2%, the inhibition [20] was 4.5% and the inhibition [21] was 7%. The inhibition [22] was 4.5%, the inhibition [23] was 8.5% and the inhibition [24] was “inactive”.
